pIC50: −log10 of the molar value.
molecular target: T1, TRAF6-UBC13 interaction (Homo sapiens, UniProt Q9Y4K3); test: ALPHAScreen TRAF6WTStrepII-Ubc13FH interaction assay; format: binding; settings: inhibition of TRAF6-UBC13 interaction
T1 construct: RING-Zincfinger1 (RZ1) domain (residues 50-159) of TRAF6 wildtype; made in house; host or cells: E. coli BL21 codon plus RIPL
T1 sequence (Q9Y4K3 50-159): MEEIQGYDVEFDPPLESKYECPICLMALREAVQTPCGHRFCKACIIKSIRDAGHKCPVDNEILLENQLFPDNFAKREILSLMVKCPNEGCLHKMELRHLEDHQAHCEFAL
Description: In order to identify small molecules that specifically target the RZ1 domain of TRAF6 and thereby prevent its binding to Ubc13, the ALPHAScreen technology (PerkinElmer) was chosen to detect TRAF6WTStrepII-Ubc13FH interaction in High-Throughput-Screenings as well as Structure Activity Relationship (SAR) analysis.
For performance of an automated ALPHAScreen assay, all following components were pre-diluted in ALPHAScreen buffer (1×PBS, 0.5% BSA, 0.01% Tween-20). First, the TRAF6 protein (end concentration 100 nM, 30 μL volume) was added to 384-well-opti-plates involving the MultiFlo dispensing system (BioTek) followed by transfer of the compounds via the Sciclone G3 transfer station (PerkinElmer). After addition of Ubc13FH (end concentration 75 nM, 10 μL volume) with the MultiFlo system and incubation for one hour at room temperature, both beads (Strep-Tactin Alpha Donor beads and Nickel-Chelate acceptor beads; end concentrations 4 μg each, 10 μL volume each) were mixed and added using the MultiFlo system in subdued light. Read-out of the plates occurred after another hour of incubation at room temperature. Statistical parameters including the coefficient of variation, Z′ factor and signal window were calculated to determine the quality of the HTS campaign. To evaluate the efficacy of the compounds, ALPHAScreen units of compound-treated samples were referred to DMSO control treated samples. Thereby, the TRAF6D57K mutant served as the control for minimum signal and was included on every plate of the screening. Compounds that inhibited TRAF6WTStrepII-Ubc13FH by more than 25% were considered as actives. After elimination of ALPHAScreen frequent hitter compounds and His-tag frequent hitters (Schorpp, K., I. Rothenaigner, E. Salmina, et al., Identification of Small-Molecule Frequent Hitters from AlphaScreen High-Throughput Screens. J Biomol Screen, 2014. 19(5): p. 715-26), 178 compounds were defined as primary hits and were subsequently tested in five-point serial dilution assays (2.5-40 μM) in TRAF6WTStrepII-Ubc13FH ALPHAScreen experiments. Only compounds with dose-dependent effects on TRAF6WTStrepII-Ubc13FH (n=27) were taken for further research. For analog testing, all compounds were analyzed in ten-point titration (0.2-100 μM) in TRAF6WTStrepII-Ubc13FH ALPHAScreen experiments. In parallel, the compounds were tested in the ALPHAScreen TruHits Kit (PerkinElmer) to rule out unspecific interference with the ALPHAScreen technology.

SMILES	pIC50
Cc1ccc(CNC(=O)CCc2c(C)nn(-c3ccc4nnc(C)n4n3)c2C)o1 [Compound 13, 3-(3,5-dimethyl-1-(3-methyl-[1,2,4]triazolo[4,3-b]pyridazin-6-yl)-1H-pyrazol-4-yl)-N-((5-methylfuran-2-yl)methyl)propanamide]	≥ 5.00
Cc1nn(-c2ccc3nnc(C)n3n2)c(C)c1CCC(=O)NCc1ccc(Cl)cc1 [Compound 18, N-(4-chlorobenzyl)-3-(3,5-dimethyl-1-(3-methyl-[1,2,4]triazolo[4,3-b]pyridazin-6-yl)-1H-pyrazol-4-yl)propanamide]	≥ 4.52
Cc1nn(-c2ccc3nnc(C)n3n2)c(C)c1CCC(=O)NCc1ccccc1 [Compound 21, N-benzyl-3-(3,5-dimethyl-1-(3-methyl-[1,2,4]triazolo[4,3-b]pyridazin-6-yl)-1H-pyrazol-4-yl)propanamide]	≥ 4.52
Cc1nn(-c2ccc3nncn3n2)c(C)c1CCC(=O)N1CCN(c2ccccn2)CC1 [Compound 12, 3-(1-([1,2,4]triazolo[4,3-b]pyridazin-6-yl)-3,5-dimethyl-1H-pyrazol-4-yl)-1-(4-(pyridin-2-yl)piperazin-1-yl)propan-1-one]	≥ 5.00
Cc1nn(-c2ccc3nnc(C)n3n2)c(C)c1CCC(=O)N1CCN(c2ccccn2)CC1 [Compound 2, 3-(3,5-dimethyl-1-(3-methyl-[1,2,4]triazolo[4,3-b]pyridazin-6-yl)-1H-pyrazol-4-yl)-1-(4-(pyridin-2-yl)piperazin-1-yl)propan-1-one]	≥ 5.52
Cc1nn(-c2ccc3nnc(C)n3n2)c(C)c1CCC(=O)NCCCc1ccccc1 [Compound 15, 3-(3,5-dimethyl-1-(3-methyl-[1,2,4]triazolo[4,3-b]pyridazin-6-yl)-1H-pyrazol-4-yl)-N-(3-phenylpropyl)propanamide]	≥ 4.52
Cc1nn(-c2ccc3nncn3n2)c(C)c1CCC(=O)N1CCN(c2ccccc2)CC1 [Compound 10, 3-(1-([1,2,4]triazolo[4,3-b]pyridazin-6-yl)-3,5-dimethyl-1H-pyrazol-4-yl)-1-(4-phenylpiperazin-1-yl)propan-1-one]	≥ 5.00
COc1ccc(N2CCN(C(=O)CCc3c(C)nn(-c4ccc5nnc(C)n5n4)c3C)CC2)cc1 [Compound 7, 3-(3,5-dimethyl-1-(3-methyl-[1,2,4]triazolo[4,3-b]pyridazin-6-yl)-1H-pyrazol-4-yl)-1-(4-(4-methoxyphenyl)piperazin-1-yl)propan-1-one]	≥ 5.00
COc1cccc(N2CCN(C(=O)CCc3c(C)nn(-c4ccc5nncn5n4)c3C)CC2)c1 [Compound 8, 3-(1-([1,2,4]triazolo[4,3-b]pyridazin-6-yl)-3,5-dimethyl-1H-pyrazol-4-yl)-1-(4-(3-methoxyphenyl)piperazin-1-yl)propan-1-one]	≥ 5.00
COc1ccc(N2CCN(C(=O)CCc3c(C)nn(-c4ccc5nncn5n4)c3C)CC2)cc1 [Compound 9, 3-(1-([1,2,4]triazolo[4,3-b]pyridazin-6-yl)-3,5-dimethyl-1H-pyrazol-4-yl)-1-(4-(4-methoxyphenyl)piperazin-1-yl)propan-1-one]	≥ 5.00
Cc1nn(-c2ccc3nnc(C)n3n2)c(C)c1CCC(=O)NCc1cccs1 [Compound 19, 3-(3,5-dimethyl-1-(3-methyl-[1,2,4]triazolo[4,3-b]pyridazin-6-yl)-1H-pyrazol-4-yl)-N-(thiophen-2-ylmethyl)propanamide]	≥ 4.52
Cc1nn(-c2ccc3nnc(C)n3n2)c(C)c1CCC(=O)N1CCN(c2ccccc2)CC1 [Compound 1, 3-(3,5-dimethyl-1-(3-methyl-[1,2,4]triazolo[4,3-b]pyridazin-6-yl)-1H-pyrazol-4-yl)-1-(4-phenylpiperazin-1-yl)propan-1-one]	≥ 5.52
Cc1nn(-c2ccc3nnc(C)n3n2)c(C)c1CCC(=O)N1CCCC1 [Compound 6, 3-(3,5-dimethyl-1-(3-methyl-[1,2,4]triazolo[4,3-b]pyridazin-6-yl)-1H-pyrazol-4-yl)-1-(pyrrolidin-1-yl)propan-1-one]	≥ 5.00
Cc1nn(-c2ccc3nnc(C)n3n2)c(C)c1CCC(=O)N1CCN(Cc2cccc(Cl)c2)CC1 [Compound 11, 1-(4-(3-chlorobenzyl)piperazin-1-yl)-3-(3,5-dimethyl-1-(3-methyl-[1,2,4]triazolo[4,3-b]pyridazin-6-yl)-1H-pyrazol-4-yl)propan-1-one]	≥ 5.00
COc1cccc(N2CCN(C(=O)CCc3c(C)nn(-c4ccc5nnc(C)n5n4)c3C)CC2)c1 [Compound 61, 3-(3,5-dimethyl-1-(3-methyl-[1,2,4]triazolo[4,3-b]pyridazin-6-yl)-1H-pyrazol-4-yl)-1-(4-(3-methoxyphenyl)piperazin-1-yl)propan-1-one]	≥ 5.52
Cc1nn(-c2ccc3nncn3n2)c(C)c1CCC(=O)N1CCC(Cc2ccccc2)CC1 [Compound 16, 3-(1-([1,2,4]triazolo[4,3-b]pyridazin-6-yl)-3,5-dimethyl-1H-pyrazol-4-yl)-1-(4-benzylpiperidin-1-yl)propan-1-one]	≥ 4.52
Cc1ccc(C)c(N2CCN(C(=O)CCc3c(C)nn(-c4ccc5nnc(C)n5n4)c3C)CC2)c1 [Compound 17, 3-(3,5-dimethyl-1-(3-methyl-[1,2,4]triazolo[4,3-b]pyridazin-6-yl)-1H-pyrazol-4-yl)-1-(4-(2,5-dimethylphenyl)piperazin-1-yl)propan-1-one]	≥ 4.52
Cc1nn(-c2ccc3nncn3n2)c(C)c1CCC(=O)N1CCN(c2ccc(F)cc2)CC1 [Compound 5, 3-(1-([1,2,4]triazolo[4,3-b]pyridazin-6-yl)-3,5-dimethyl-1H-pyrazol-4-yl)-1-(4-(4-fluorophenyl)piperazin-1-yl)propan-1-one]	≥ 5.00
Cc1nn(-c2ccc3nnc(C)n3n2)c(C)c1CCC(=O)NCCc1c[nH]c2ccccc12 [Compound 20, N-(2-(1H-indol-3-yl)ethyl)-3-(3,5-dimethyl-1-(3-methyl-[1,2,4]triazolo[4,3-b]pyridazin-6-yl)-1H-pyrazol-4-yl)propanamide]	≥ 4.52
Cc1nn(-c2ccc3nnc(C)n3n2)c(C)c1CCC(=O)N1CCN(c2ccc(F)cc2)CC1 [Compound 4, 3-(3,5-dimethyl-1-(3-methyl-[1,2,4]triazolo[4,3-b]pyridazin-6-yl)-1H-pyrazol-4-yl)-1-(4-(4-fluorophenyl)piperazin-1-yl)propan-1-one]	≥ 5.52

same assay, conditions: inhibition of TRAF6-UBC13 interaction; read-out: IC50 Alphascreen

SMILES	inhibition at 100 µM [%]
Cc1nn(-c2ccc3nncn3n2)c(C)c1CCC(=O)N1CCCC1 [Compound 25, 3-(1-([1,2,4]triazolo[4,3-b]pyridazin-6-yl)-3,5-dimethyl-1H-pyrazol-4-yl)-1-(pyrrolidin-1-yl)propan-1-one]	≥ 30
CCN1CCN(C(=O)CCc2c(C)nn(-c3ccc4nnc(C)n4n3)c2C)CC1 [Compound 23, 3-(3,5-dimethyl-1-(3-methyl-[1,2,4]triazolo[4,3-b]pyridazin-6-yl)-1H-pyrazol-4-yl)-1-(4-ethylpiperazin-1-yl)propan-1-one]	≥ 30
Cc1nn(-c2ccc3nncn3n2)c(C)c1CCC(=O)N1CCC(C)CC1 [Compound 24, 3-(1-([1,2,4]triazolo[4,3-b]pyridazin-6-yl)-3,5-dimethyl-1H-pyrazol-4-yl)-1-(4-methylpiperidin-1-yl)propan-1-one]	≥ 30
Cc1nn(-c2ccc3nncn3n2)c(C)c1CCC(=O)NCCCc1ccccc1 [Compound 22, 3-(1-([1,2,4]triazolo[4,3-b]pyridazin-6-yl)-3,5-dimethyl-1H-pyrazol-4-yl)-N-(3-phenylpropyl)propanamide]	≥ 30
Cc1nn(-c2ccc3nnc(C)n3n2)c(C)c1CCC(=O)NCCSCc1ccco1 [Compound 27, 3-(3,5-dimethyl-1-(3-methyl-[1,2,4]triazolo[4,3-b]pyridazin-6-yl)-1H-pyrazol-4-yl)-N-(2-((furan-2-ylmethyl)thio)ethyl)propanamide]	≥ 30
Cc1nn(-c2ccc3nnc(C)n3n2)c(C)c1CCC(=O)NCc1ccccc1F [Compound 26, 3-(3,5-dimethyl-1-(3-methyl-[1,2,4]triazolo[4,3-b]pyridazin-6-yl)-1H-pyrazol-4-yl)-N-(2-fluorobenzyl)propanamide]	≥ 30
